Assay results: ChEMBL document CHEMBL5046291, “Evodiamine-Inspired Topoisomerase-Histone Deacetylase Dual Inhibitors: Novel Orally Active Antitumor Agents for Leukemia Therapy” (J Med Chem, 2022)
Active and inactive are the calls of the source. The rule behind the calls is not given here.

Assays:
[1] = target: T1, DNA topoisomerase 1 (Homo sapiens) (UniProt P11387); test: Inhibition of recombinant Top1 (unknown origin) assessed as inhibition of relaxation of supercoiled pBR322 plasmid DNA at 100 uM incubated for 15 mins by ethidium bromide staining based agarose gel electrophoresis analysis
T1 sequence (whole entry): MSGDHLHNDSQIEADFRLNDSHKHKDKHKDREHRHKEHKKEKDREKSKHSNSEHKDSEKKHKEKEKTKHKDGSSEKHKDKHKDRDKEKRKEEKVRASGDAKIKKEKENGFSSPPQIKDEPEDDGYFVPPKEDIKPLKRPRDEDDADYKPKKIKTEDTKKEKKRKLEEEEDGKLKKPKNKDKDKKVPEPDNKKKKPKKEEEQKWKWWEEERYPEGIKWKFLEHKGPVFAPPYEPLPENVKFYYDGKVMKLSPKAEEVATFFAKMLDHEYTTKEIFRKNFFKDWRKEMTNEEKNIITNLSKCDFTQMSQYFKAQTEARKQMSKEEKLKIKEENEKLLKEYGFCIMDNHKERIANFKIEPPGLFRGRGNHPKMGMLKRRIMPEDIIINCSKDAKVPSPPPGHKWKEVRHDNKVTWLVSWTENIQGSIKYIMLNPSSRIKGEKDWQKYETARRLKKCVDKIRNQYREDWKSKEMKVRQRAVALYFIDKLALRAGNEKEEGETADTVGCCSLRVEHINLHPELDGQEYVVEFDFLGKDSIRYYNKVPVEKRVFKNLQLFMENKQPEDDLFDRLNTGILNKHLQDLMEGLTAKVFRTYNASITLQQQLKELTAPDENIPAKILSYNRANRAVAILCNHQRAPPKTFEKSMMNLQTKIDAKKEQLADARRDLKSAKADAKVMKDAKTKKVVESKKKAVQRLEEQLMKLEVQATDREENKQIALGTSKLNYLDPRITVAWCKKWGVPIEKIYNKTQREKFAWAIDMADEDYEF

Histone deacetylase 1 = Histone deacetylase 1 (Homo sapiens, UniProt Q13547); test: Inhibition of full-length recombinant human HDAC1 expressed in Baculovirus expression system using Ac-Leu-Gly-Lys(Ac)-AMC as substrate preincubated for 5 mins followed by substrate addition and further incubated for 30 mins by fluorescence based microtiter plate reader assay
Chain of Histone deacetylase 1 (Q13547 whole entry): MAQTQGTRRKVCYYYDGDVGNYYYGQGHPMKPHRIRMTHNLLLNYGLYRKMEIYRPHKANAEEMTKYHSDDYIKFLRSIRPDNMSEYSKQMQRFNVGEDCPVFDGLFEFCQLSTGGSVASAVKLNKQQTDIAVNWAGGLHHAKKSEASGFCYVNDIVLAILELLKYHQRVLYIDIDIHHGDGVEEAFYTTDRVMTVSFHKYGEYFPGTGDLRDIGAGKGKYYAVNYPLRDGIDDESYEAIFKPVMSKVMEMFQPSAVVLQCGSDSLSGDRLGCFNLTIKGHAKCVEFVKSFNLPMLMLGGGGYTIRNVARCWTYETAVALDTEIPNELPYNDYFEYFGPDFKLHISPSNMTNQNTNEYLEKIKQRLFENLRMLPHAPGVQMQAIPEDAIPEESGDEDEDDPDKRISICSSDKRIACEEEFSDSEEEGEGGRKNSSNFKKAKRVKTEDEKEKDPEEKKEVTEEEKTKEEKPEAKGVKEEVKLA

MCF7 = test: Antiproliferative activity against human MCF7 cells assessed as cell growth inhibition incubated for 8 hrs by CCK8 assay; type: functional, cell-based; conditions: MCF7, 8 h
A549 = test: Antiproliferative activity against human A549 cells assessed as cell growth inhibition incubated for 8 hrs by CCK8 assay; type: functional, cell-based; conditions: A549, 8 h
HCT-116 = test: Antiproliferative activity against human HCT-116 cells assessed as cell growth inhibition incubated for 8 hrs by CCK8 assay; type: functional, cell-based; conditions: HCT-116, 8 h
HepG2 = test: Antiproliferative activity against human HepG2 cells assessed as cell growth inhibition incubated for 8 hrs by CCK8 assay; type: functional, cell-based; conditions: HepG2, 8 h
K562 = test: Antiproliferative activity against human K562 cells assessed as cell growth inhibition incubated for 8 hrs by CCK8 assay; type: functional, cell-based; conditions: K562, 8 h
HEL = test: Antiproliferative activity against HEL cells assessed as cell growth inhibition incubated for 8 hrs by CCK8 assay; type: functional, cell-based; conditions: Homo sapiens
[2] = target: DNA topoisomerase 2-alpha (Homo sapiens) (UniProt P11388); test: Inhibition of recombinant Top2 (unknown origin) assessed as inhibition of relaxation of supercoiled pBR322 plasmid DNA at 100 uM incubated for 15 mins by ethidium bromide staining based agarose gel electrophoresis analysis
Chain of DNA topoisomerase 2-alpha (Homo sapiens) (P11388 whole entry): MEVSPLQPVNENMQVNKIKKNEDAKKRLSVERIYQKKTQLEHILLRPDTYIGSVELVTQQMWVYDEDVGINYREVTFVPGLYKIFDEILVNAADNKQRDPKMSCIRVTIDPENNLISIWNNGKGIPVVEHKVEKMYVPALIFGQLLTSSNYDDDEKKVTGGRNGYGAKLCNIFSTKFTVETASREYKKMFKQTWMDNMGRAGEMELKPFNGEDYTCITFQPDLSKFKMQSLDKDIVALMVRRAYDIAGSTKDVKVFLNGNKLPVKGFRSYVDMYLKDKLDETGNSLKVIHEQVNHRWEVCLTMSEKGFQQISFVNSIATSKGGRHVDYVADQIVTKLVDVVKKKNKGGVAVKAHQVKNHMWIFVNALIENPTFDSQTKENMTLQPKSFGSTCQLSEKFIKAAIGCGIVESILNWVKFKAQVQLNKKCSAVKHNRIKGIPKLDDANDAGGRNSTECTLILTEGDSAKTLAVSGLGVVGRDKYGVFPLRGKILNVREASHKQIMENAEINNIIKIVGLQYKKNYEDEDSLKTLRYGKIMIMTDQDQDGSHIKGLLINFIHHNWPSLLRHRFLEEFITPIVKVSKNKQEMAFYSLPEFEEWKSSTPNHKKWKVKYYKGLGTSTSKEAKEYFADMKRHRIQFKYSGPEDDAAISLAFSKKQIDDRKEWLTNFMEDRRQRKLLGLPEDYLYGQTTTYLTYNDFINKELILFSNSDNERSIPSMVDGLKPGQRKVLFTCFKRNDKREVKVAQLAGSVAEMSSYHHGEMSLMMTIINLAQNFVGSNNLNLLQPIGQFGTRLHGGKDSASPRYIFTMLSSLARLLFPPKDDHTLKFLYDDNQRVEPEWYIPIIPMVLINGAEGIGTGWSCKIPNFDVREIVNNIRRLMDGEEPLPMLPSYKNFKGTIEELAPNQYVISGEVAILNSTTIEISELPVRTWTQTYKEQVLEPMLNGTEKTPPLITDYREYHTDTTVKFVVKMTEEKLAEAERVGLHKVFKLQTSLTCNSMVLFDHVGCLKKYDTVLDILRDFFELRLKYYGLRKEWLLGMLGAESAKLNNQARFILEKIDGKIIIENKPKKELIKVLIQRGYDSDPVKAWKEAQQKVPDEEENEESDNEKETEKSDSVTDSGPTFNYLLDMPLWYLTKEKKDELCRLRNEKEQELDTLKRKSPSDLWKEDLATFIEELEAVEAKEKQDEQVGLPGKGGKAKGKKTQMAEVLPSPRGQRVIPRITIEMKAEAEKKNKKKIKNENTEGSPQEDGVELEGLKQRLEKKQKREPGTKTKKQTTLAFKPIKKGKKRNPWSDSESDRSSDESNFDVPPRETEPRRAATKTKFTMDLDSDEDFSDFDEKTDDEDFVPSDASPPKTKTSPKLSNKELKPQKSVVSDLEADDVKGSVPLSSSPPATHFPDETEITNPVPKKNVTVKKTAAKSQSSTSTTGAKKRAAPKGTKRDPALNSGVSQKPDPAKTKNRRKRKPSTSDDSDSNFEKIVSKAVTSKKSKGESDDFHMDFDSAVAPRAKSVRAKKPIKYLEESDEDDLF

[3] = target: DNA topoisomerase 2-alpha (Homo sapiens) (UniProt P11388); test: Inhibition of recombinant Top2 (unknown origin) assessed as inhibition of relaxation of supercoiled pBR322 plasmid DNA at 50 uM incubated for 15 mins by ethidium bromide staining based agarose gel electrophoresis analysis

Compound | inhibition [1] | IC50 (Histone deacetylase 1) | IC50 (MCF7) | IC50 (A549) | IC50 (HCT-116) | IC50 (HepG2) | IC50 (K562) | IC50 (HEL) | inhibition [2] | inhibition [3]
CN1c2ccc(F)cc2C(=O)N2CCc3c([nH]c4ccc(OCc5ccccc5C(=O)Nc5ccccc5N)cc34)C21 (stereo not drawn) | inactive | 1900 nM | 420 nM | 830 nM | 220 nM | 440 nM | 920 nM | 820 nM | – | –
CN1c2ccc(F)cc2C(=O)N2CCc3c([nH]c4ccc(OCc5cccc(C(=O)Nc6ccccc6N)c5)cc34)C21 (stereo not drawn) | inactive | 3600 nM | > 2000 nM | 1320 nM | > 2000 nM | 420 nM | 1380 nM | 660 nM | – | –
CN1c2ccc(F)cc2C(=O)N2CCc3c([nH]c4ccc(OCCCCCCCC(=O)NO)cc34)C21 (stereo not drawn) | Active | 150 nM | > 2000 nM | 1580 nM | > 2000 nM | > 2000 nM | > 2000 nM | 1580 nM | inactive | –
CN1c2ccc(F)cc2C(=O)N2CCc3c([nH]c4ccc(OCc5ccc(CC(=O)NO)cc5)cc34)C21 (stereo not drawn) | Active | 360 nM | > 2000 nM | > 2000 nM | > 2000 nM | 520 nM | 180 nM | 100 nM | Active | Active
CC[C@@]1(O)C(=O)OCc2c1cc1n(c2=O)Cc2cc3c(CN(C)C)c(O)ccc3nc2-1 [TOPOTECAN] | – | – | 140 nM | 8300 nM | 970 nM | 3300 nM | 910 nM | 26000 nM | – | –
CN1c2ccc(F)cc2C(=O)N2CCc3c([nH]c4ccc(OCc5ccccc5C(=O)NO)cc34)C21 (stereo not drawn) | Active | 6100 nM | 800 nM | 1210 nM | 150 nM | 120 nM | 86 nM | 290 nM | Active | Active
CN1c2ccc(F)cc2C(=O)N2CCc3c([nH]c4ccc(OCCCC(=O)Nc5ccccc5N)cc34)C21 (stereo not drawn) | inactive | 2200 nM | 52000 nM | 1250 nM | 1030 nM | 160 nM | 280 nM | 350 nM | – | –
CN1c2ccc(F)cc2C(=O)N2CCc3c([nH]c4ccc(OCc5ccc(C(=O)NO)cc5)cc34)C21 (stereo not drawn) | inactive | 32 nM | 160 nM | > 2000 nM | 500 nM | 98 nM | 250 nM | > 2000 nM | Active | Active
CN1c2ccc(F)cc2C(=O)N2CCc3c([nH]c4ccc(OCCCCCCC(=O)Nc5ccccc5N)cc34)C21 (stereo not drawn) | Active | 25 nM | 830 nM | 810 nM | > 2000 nM | 1260 nM | 1380 nM | 1850 nM | Active | Active
CN1c2ccc(F)cc2C(=O)N2CCc3c([nH]c4ccc(OCCCCCCC(=O)NO)cc34)C21 (stereo not drawn) | Active | 3 nM | 210 nM | 630 nM | 830 nM | 200 nM | > 2000 nM | > 2000 nM | Active | Active
CN1c2ccc(F)cc2C(=O)N2CCc3c([nH]c4ccc(OCCCCCC(=O)NO)cc34)C21 (stereo not drawn) | inactive | 4 nM | 150 nM | 300 nM | 120 nM | 210 nM | 670 nM | 100 nM | Active | Active
CN1c2ccc(F)cc2C(=O)N2CCc3c([nH]c4ccc(OCCCCC(=O)NO)cc34)C21 (stereo not drawn) | inactive | 21 nM | 1560 nM | 330 nM | > 2000 nM | 810 nM | 410 nM | 580 nM | Active | Active
CN1c2ccc(F)cc2C(=O)N2CCc3c([nH]c4ccc(OCc5ccc(C(=O)Nc6ccccc6N)cc5)cc34)C21 (stereo not drawn) | Active | 31 nM | 1910 nM | > 2000 nM | > 2000 nM | 125000 nM | 250 nM | 44 nM | – | –
CN1c2ccc(F)cc2C(=O)N2CCc3c([nH]c4ccc(OCCCCCC(=O)Nc5ccccc5N)cc34)C21 (stereo not drawn) | inactive | 320 nM | > 2000 nM | 720 nM | > 2000 nM | > 2000 nM | 1200 nM | 1100 nM | – | –
CN1c2ccc(F)cc2C(=O)N2CCc3c([nH]c4ccc(OCCCCC(=O)Nc5ccccc5N)cc34)C21 (stereo not drawn) | inactive | 2100 nM | 1260 nM | 820 nM | 600 nM | 1250 nM | > 2000 nM | 720 nM | – | –
CN1c2ccc(F)cc2C(=O)N2CCc3c([nH]c4ccc(OCc5cccc(C(=O)NO)c5)cc34)C21 (stereo not drawn) | Active | 1900 nM | > 2000 nM | > 2000 nM | > 2000 nM | 1620 nM | > 2000 nM | 580 nM | Active | Active
CN1c2ccc(F)cc2C(=O)N2CCc3c([nH]c4ccc(OCCCC(=O)NO)cc34)C21 (stereo not drawn) | Active | 2200 nM | 1230 nM | > 2000 nM | > 2000 nM | > 2000 nM | 550 nM | 270 nM | Active | Active
